In patent US20230407243A1, “GENETIC PLATFORM TO INVESTIGATE THE FUNCTIONS OF BACTERIAL DRUG EFFLUX PUMPS” (priority 2022, published 2023):
Like-named read-outs stand apart in the source and are kept apart here.

Key:
Format in all cases: cell-based, Escherichia coli
EKO-35 araC::acrBD408A = experiment: MIC susceptibility profiling, efflux platform; settings: for Fold change of MICs: EKO-35 araC::acrBD408A compared to EKO-35; for MIC: Escherichia coli, read-out: Minimum Inhibitory Concentration, EKO-35 araC::acrBD408A
How it was run: (§1)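 LB o/n 37 °C → PBS pH 7.4, OD600 ~1.0 → 1/2000 in MHB II; 2-fold cmpd series, duplicate, DMSO ctrl; 18 h 37 °C, 900 rpm; OD600 post minus pre.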

EKO-35 araC::acrEF = experiment: MIC susceptibility profiling, efflux platform; settings: for Fold change of MICs: EKO-35 araC::acrEF compared to EKO-35; for MIC: Escherichia coli, read-out: Minimum Inhibitory Concentration, EKO-35 araC::acrEF
How it was run: as §1

EKO-35 araC::emrAB = experiment: MIC susceptibility profiling, efflux platform; settings: for Fold change of MICs: EKO-35 araC::emrAB compared to EKO-35; for MIC: Escherichia coli, read-out: Minimum Inhibitory Concentration, EKO-35 araC::emrAB
How it was run: as §1

EKO-35 araC::emrKY = experiment: MIC susceptibility profiling, efflux platform; settings: for Fold change of MICs: EKO-35 araC::emrKY compared to EKO-35; for MIC: Escherichia coli, read-out: Minimum Inhibitory Concentration, EKO-35 araC::emrKY
How it was run: as §1

EKO-35 araC::macAB = experiment: MIC susceptibility profiling, efflux platform; settings: for Fold change of MICs: EKO-35 araC::macAB compared to EKO-35; for MIC: Escherichia coli, read-out: Minimum Inhibitory Concentration, EKO-35 araC::macAB
How it was run: as §1

EKO-35 araC::mdtEF = experiment: MIC susceptibility profiling, efflux platform; settings: for Fold change of MICs: EKO-35 araC::mdtEF compared to EKO-35; for MIC: Escherichia coli, read-out: Minimum Inhibitory Concentration, EKO-35 araC::mdtEF
How it was run: as §1

wild-type (WT) K-12-Pore = experiment: microbe, parasite or virus in culture; settings: technical duplicate; for MIC: Escherichia coli
How it was run: (§2)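 Strains carry the fhuA ΔC/Δ4L pore integrated between glmS and pstS under a constitutive promoter, with pore activity checked by vancomycin susceptibility. Overnight LB cultures were adjusted in PBS pH 7.4 to OD600 ~1.0 and diluted 1/2000 into MHB II. 2-fold compound titrations were read by OD600 after 18 h at 37 °C.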

ΔtolC-Pore = experiment: microbe, parasite or virus in culture; settings: for Minimum inhibitory concentration (MIC), Pore ΔtolC: Table 10, with pore; for MIC: Escherichia coli, 18 h, read-out: Minimum inhibitory concentration, ΔtolC-Pore
How it was run: as §2

EKO-35 araC::acrB Pore = experiment: MIC susceptibility profiling, porinated efflux platform; settings: for Fold changes of MICs: EKO-35 araC::acr-B Pore compared to EKO-35-Pore
How it was run: as §2

[1] = test system: EKO-35 araC::acrBD408A Pore; experiment: as above; settings: for Fold changes of MICs: EKO-35 araC::acrBD408A Pore compared to EKO-35-Pore; for MIC: Escherichia coli, read-out: Minimum inhibitory concentration
How it was run: as §2

EKO-35 araC::acrD Pore = experiment: as above; settings: for Fold changes of MICs: EKO-35 araC::acrD Pore compared to EKO-35-Pore; for MIC: Escherichia coli, read-out: Minimum inhibitory concentration, EKO-35 araC::acrD Pore
How it was run: as §2

EKO-35 araC::acrEF Pore = experiment: as above; settings: for Fold changes of MICs: EKO-35 araC::acrEF Pore compared to EKO-35-Pore; for MIC: Escherichia coli, read-out: Minimum inhibitory concentration, EKO-35 araC::acrEF Pore
How it was run: as §2

EKO-35 araC::emrAB Pore = experiment: as above; settings: for Fold changes of MICs: EKO-35 araC::emrAB Pore compared to EKO-35-Pore; for MIC: Escherichia coli, read-out: Minimum inhibitory concentration
How it was run: as §2

EKO-35 araC::emrKY Pore = experiment: as above; settings: for Fold changes of MICs: EKO-35 araC::emrKY Pore compared to EKO-35-Pore; for MIC: Escherichia coli, read-out: Minimum inhibitory concentration
How it was run: as §2

EKO-35 araC::macAB Pore = experiment: as above; settings: for Fold changes of MICs: EKO-35 araC::macAB Pore compared to EKO-35-Pore; for MIC: Escherichia coli, read-out: Minimum inhibitory concentration
How it was run: as §2

EKO-35 araC::mdtBC Pore = experiment: as above; settings: for Fold changes of MICs: EKO-35 araC::mdtBC Pore compared to EKO-35-Pore; for MIC: Escherichia coli, read-out: Minimum inhibitory concentration
How it was run: as §2

EKO-35 araC::mdtEF Pore = experiment: as above; settings: for Fold changes of MICs: EKO-35 araC::mdtEF Pore compared to EKO-35-Pore; for MIC: Escherichia coli, read-out: Minimum inhibitory concentration, EKO-35 araC::mdtEF Pore
How it was run: as §2

EKO-35 araC::mexCD Pore = experiment: as above; settings: for Fold changes of MICs: EKO-35 araC::mexCD Pore compared to EKO-35-Pore; for MIC: Escherichia coli, read-out: Minimum inhibitory concentration
How it was run: as §2

[2] = Table 13B, non-porinated, technical duplicate
[3] = Table 13A, non-porinated, technical duplicate
[4] = Table 14A, porinated, technical duplicate
[5] = EKO-35 araC::acrBD408A Pore, technical duplicate
[6] = EKO-35 araC::emrAB Pore, technical duplicate
[7] = EKO-35 araC::emrKY Pore, technical duplicate
[8] = EKO-35 araC::macAB Pore, technical duplicate
[9] = EKO-35 araC::mdtBC Pore, technical duplicate
[10] = EKO-35 araC::mexCD Pore, technical duplicate
[11] = Table 10, with pore, read-out: Minimum inhibitory concentration (MIC), Pore K-12
[12] = Table 14A, porinated, read-out: Minimum inhibitory concentration, K-12 (WT)-Pore

SMILES | Fold change of MICs (EKO-35 araC::acrBD408A) | Fold change of MICs (EKO-35 araC::acrEF) | Fold change of MICs (EKO-35 araC::emrAB) | Fold change of MICs (EKO-35 araC::emrKY) | Fold change of MICs (EKO-35 araC::macAB) | Fold change of MICs (EKO-35 araC::mdtEF) | Minimum inhibitory concentration (MIC), Pore ΔtolC (ΔtolC-Pore; technical duplicate) | Fold changes of MICs (EKO-35 araC::acrB Pore) | Fold changes of MICs [1] | Fold changes of MICs (EKO-35 araC::acrD Pore) | Fold changes of MICs (EKO-35 araC::acrEF Pore) | Fold changes of MICs (EKO-35 araC::emrAB Pore) | Fold changes of MICs (EKO-35 araC::emrKY Pore) | Fold changes of MICs (EKO-35 araC::macAB Pore) | Fold changes of MICs (EKO-35 araC::mdtBC Pore) | Fold changes of MICs (EKO-35 araC::mdtEF Pore) | Fold changes of MICs (EKO-35 araC::mexCD Pore) | MIC (EKO-35 araC::acrBD408A; [2]) | MIC (EKO-35 araC::acrEF; [3]) | MIC (EKO-35 araC::emrAB; [2]) | other results
C=C1CCO[C@]2([C@@H](O)[C@@](C)(O)CO)NC(=O)[C@@]1(O)NC2=O [Bicyclomycin] | 1 fold | 1 fold | 1 fold | 1 fold | 1 fold | 1 fold | 200 µg/mL | 1 fold | 1 fold | 1 fold | 1 fold | 1 fold | 1 fold | 1 fold | 1 fold | 1 fold | 1 fold | – | – | – | Minimum Inhibitory Concentration, EKO-35 araC::acrBD408A (EKO-35 araC::acrBD408A; [2]): 200 µg/mL; Minimum Inhibitory Concentration, EKO-35 araC::acrEF (EKO-35 araC::acrEF; [3]): 200 µg/mL; Minimum Inhibitory Concentration, EKO-35 araC::emrAB (EKO-35 araC::emrAB; [2]): 200 µg/mL; Minimum Inhibitory Concentration, EKO-35 araC::emrKY (EKO-35 araC::emrKY; [2]): 200 µg/mL; Minimum Inhibitory Concentration, EKO-35 araC::macAB (EKO-35 araC::macAB; [2]): 200 µg/mL; Minimum Inhibitory Concentration, EKO-35 araC::mdtEF (EKO-35 araC::mdtEF; [3]): 200 µg/mL; Minimum inhibitory concentration (MIC), Pore K-12 (wild-type (WT) K-12-Pore; Table 10, with pore): 200 µg/mL; Minimum inhibitory concentration, K-12 (WT)-Pore (wild-type (WT) K-12-Pore; Table 14A, porinated): 200 µg/mL; Minimum inhibitory concentration, ΔtolC-Pore (ΔtolC-Pore; [4]): 200 µg/mL; Minimum inhibitory concentration, EKO-35 araC::acrB Pore (EKO-35 araC::acrB Pore; [4]): 200 µg/mL; Minimum inhibitory concentration [1, 5]: 200 µg/mL; Minimum inhibitory concentration, EKO-35 araC::acrD Pore (EKO-35 araC::acrD Pore; [4]): 200 µg/mL; Minimum inhibitory concentration, EKO-35 araC::acrEF Pore (EKO-35 araC::acrEF Pore; [4]): 200 µg/mL; Minimum inhibitory concentration (EKO-35 araC::emrAB Pore; [6]): 200 µg/mL; Minimum inhibitory concentration (EKO-35 araC::emrKY Pore; [7]): 200 µg/mL; Minimum inhibitory concentration (EKO-35 araC::macAB Pore; [8]): 200 µg/mL; Minimum inhibitory concentration (EKO-35 araC::mdtBC Pore; [9]): 200 µg/mL; Minimum inhibitory concentration, EKO-35 araC::mdtEF Pore (EKO-35 araC::mdtEF Pore; [4]): 200 µg/mL; Minimum inhibitory concentration (EKO-35 araC::mexCD Pore; [10]): 200 µg/mL
CC(=O)NC[C@H]1CN(c2ccc(N3CCOCC3)c(F)c2)C(=O)O1 [linezolid] | 1 fold | 2 fold | 1 fold | 1 fold | 1 fold | 1 fold | 3.906 µg/mL | 16 fold | 1 fold | 2 fold | 2 fold | 2 fold | 1 fold | 1 fold | 1 fold | 2 fold | 2 fold | 7.81 µg/mL | 15.6 µg/mL | 3.91 µg/mL | MIC (EKO-35 araC::emrKY; [2]): 3.91 µg/mL; MIC (EKO-35 araC::macAB; [2]): 3.91 µg/mL; MIC (EKO-35 araC::mdtEF; [3]): 3.91 µg/mL; MIC (wild-type (WT) K-12-Pore; [11]): 125 µg/mL; MIC (wild-type (WT) K-12-Pore; [12]): 125 µg/mL; MIC (ΔtolC-Pore): 3.91 µg/mL; MIC (EKO-35 araC::acrB Pore; Escherichia coli, Table 14A, porinated, technical duplicate, read-out: Minimum inhibitory concentration, EKO-35 araC::acrB Pore): 62.5 µg/mL; MIC [1, 5]: 3.91 µg/mL; MIC (EKO-35 araC::acrD Pore; [4]): 7.81 µg/mL; MIC (EKO-35 araC::acrEF Pore; [4]): 7.81 µg/mL; MIC (EKO-35 araC::emrAB Pore; [6]): 7.81 µg/mL; MIC (EKO-35 araC::emrKY Pore; [7]): 3.91 µg/mL; MIC (EKO-35 araC::macAB Pore; [8]): 3.91 µg/mL; MIC (EKO-35 araC::mdtBC Pore; [9]): 3.91 µg/mL; MIC (EKO-35 araC::mdtEF Pore; [4]): 7.81 µg/mL; MIC (EKO-35 araC::mexCD Pore; [10]): 7.81 µg/mL
COc1ccc(C[C@H](N)C(=O)N[C@H]2[C@@H](O)[C@H](n3cnc4c(N(C)C)ncnc43)O[C@@H]2CO)cc1 [puromycin] | 1 fold | 4 fold | 1 fold | 1 fold | 1 fold | 1 fold | 1.563 µg/mL | 64 fold | 1 fold | 1 fold | 4 fold | 1 fold | 2 fold | 1 fold | 1 fold | 2 fold | 2 fold | 1.56 µg/mL | 6.25 µg/mL | 1.56 µg/mL | MIC (EKO-35 araC::emrKY; [2]): 1.56 µg/mL; MIC (EKO-35 araC::macAB; [2]): 1.56 µg/mL; MIC (EKO-35 araC::mdtEF; [3]): 1.56 µg/mL; MIC (wild-type (WT) K-12-Pore; [11]): 50 µg/mL; MIC (wild-type (WT) K-12-Pore; [12]): 50 µg/mL; MIC (ΔtolC-Pore): 1.56 µg/mL; MIC [1, 5]: 0.781 µg/mL; MIC (EKO-35 araC::acrD Pore; [4]): 0.781 µg/mL; MIC (EKO-35 araC::acrEF Pore; [4]): 3.12 µg/mL; MIC (EKO-35 araC::emrAB Pore; [6]): 0.781 µg/mL; MIC (EKO-35 araC::emrKY Pore; [7]): 1.56 µg/mL; MIC (EKO-35 araC::macAB Pore; [8]): 0.781 µg/mL; MIC (EKO-35 araC::mdtBC Pore; [9]): 0.781 µg/mL; MIC (EKO-35 araC::mdtEF Pore; [4]): 1.56 µg/mL; MIC (EKO-35 araC::mexCD Pore; [10]): 1.56 µg/mL; efflux pump-mediated resistance vs EKO-35-Pore (EKO-35 araC::mexCD Pore; MexCD, OM compromised): no longer associated MexCD with resistance
